Experimental data published in patent US20220387440A1, “FORMULATIONS FOR USE IN THE PREVENTION AND/OR TREATMENT OF PERIPHERAL NEUROPATHY AND ITS ASSOCIATED DISEASES” (priority 2019, published 2022).
Where “and” joins values, the source holds several entries; their conditions need not be identical. Identical values can stand only once. Like-named read-outs stand apart in the source and are kept apart here.

Assays:
[1] = test system: rat dorsal root ganglion neurons (DRG); assay: Cell number by hoechst 33342 nucleic acid stain (HCS), glucose toxicity; conditions: for Score of neuroprotection, HOECHST: glucose-treated DRGs
Source text: This dye allows a sensitive cell number determination by fluorescence microscopy.

[2] = test system: rat dorsal root ganglion neurons (DRG); conditions: for Score of neuroprotection, Extremity count / Score of neuroprotection, Total length: glucose-treated DRGs
Protocol: In vitro injury was induced in DRGs culture by glucose treatment (150 mM) for 48 hours. […] By using HCS technology, cell parameters associated with neurite outgrowth—an indication of pre-lethal cytotoxic effects—were measured at single cell level, which allows high-throughput screening.
(§1) Primary cultures of dorsal rat ganglion neurons were prepared from the dorsal ganglions of neonatal Sprague-Dawley rats at day 8. […] Cells were maintained in neurobasal medium supplemented with B-27 component for 8 days at 37° C. in a humidified 5% CO2 atmosphere.
Beta-Ill tubulin staining: Beta-Ill tubulin staining was determined by Immunohistochemistry (IHQ). Cells were washed with PBS (Sigma Aldrich # Cat.D8537) and fixed with methanol for 10 minutes. After the fixation step the samples were washed three times with PBS and permeabilized with PBS+0.3% triton for 10 minutes. The samples were then blocked with PBS+Bovine Serum Albumine (BSA) for 30 minutes and finally anti-beta tubulin Ill antibody (Abcam # Cat.ab7751) were added at 1/1000 in PBS+0.5% BSA for 60 minutes at room temperature. […] The samples were then washed three times and measured under automated fluorescent microscope. To investigate the role of neurite extension, two geometric patterns were mainly employed in this study: total neurite length (total length of the path from a neuron body), and number of extremities (number of terminating neurite segments per neuron).
In order to acquire enough cells for the analysis, nine fields per well were imaged. The 20× objective was used to collect images for the distinct fluorescence channels. Dyes were excited and their fluorescence was monitored at the excitation and emission wavelengths with appropriate filter settings. In the setting up of the procedure, exposure times were adjusted in order to avoid overlapping emission between different probes. The collected images were analyzed using a module that allows the simultaneous quantification of subcellular structures, which are stained by different molecular probes to measure the fluorescence intensity associated with predefined nuclear and cytoplasmic compartments.

[3] = test system: rat dorsal root ganglion neurons (DRG); assay: WST-8 assay of viable cells, glucose toxicity; conditions: for Score of neuroprotection, WST8: glucose-treated DRGs
Protocol: as §1
2. WST-8 assay: For detection of viable cells, 10 μl of CCK-8 reagent (WST-8) were added to each well and the plate was incubated at 37° C. After 1 hour, absorbance was measured at 450 nm using the Synergy II microplate reader.

[4] = diluted with sodium chloride 0.9%; cited from earlier work
peripheral nerves = conditions: injected into the spinal cord compartment of cerebral spinal fluid; cited from earlier work
eye = conditions: higher concentrations, accidental use instead of Trypan Blue during cataract surgery; cited from earlier work
glucose-treated DRGs = assay: Degree of neuroprotection, sum of scores of all HCS parameters; conditions: for Total score of neuroprotection (sum of individual scores): glucose-treated DRGs; for Neuroprotection degree: prior to assault with 150 mM glucose
Source text: For all the studied parameters, a variation of at least 20% in fluorescence intensity or in the corresponding morphological parameter in relation to untreated cultures was considered. […] From this calculation, a neuroprotective scale was established: high (>6), moderate (4-5), low (1-3), and no neuroprotection (0).
In order to compare the degree of neuroprotection of the tested compound at different concentrations, different scores were created according to the level of the alteration (the group formation criterion is described in material and methods section) and then a value was assigned to each parameter. The sum of all the values for each parameter and concentration tested was calculated, and four distinct groups were created according to their level of neuroprotection.

[5] = Sprague-Dawley, rat, 48 h, 150 mM
[6] = MB 0.0005 uM (with glu 150 mM, 48 h)
[7] = MB 0.0005 uM (with glu 150 mM, 48 h), listed as MB
[8] = MB 0.005 uM (with glu 150 mM, 48 h)
[9] = MB 0.005 uM (with glu 150 mM, 48 h), listed as MB
[10] = MB 0.05 uM (with glu 150 mM, 48 h)
[11] = MB 0.05 uM (with glu 150 mM, 48 h), listed as MB
[12] = MB 0.5 uM (with glu 150 mM, 48 h)
[13] = MB 0.5 uM (with glu 150 mM, 48 h), listed as MB
[14] = MB 5 uM (with glu 150 mM, 48 h)
[15] = MB 5 uM (with glu 150 mM, 48 h), listed as MB
[16] = MB 50 uM (with glu 150 mM, 48 h)
[17] = MB 50 uM (with glu 150 mM, 48 h), listed as MB

O=C[C@H](O)[C@@H](O)[C@H](O)[C@H](O)CO [Glucose, glucose]
Cell viability by Hoechst (single replicates) ([1]; Glucose (Alone) 150 mM, 48 h): 125 and 104 and 81 | Cell viability by Hoechst, Mean % of control ([1]; Glucose (Alone) 150 mM, 48 h): 46.76 % of control | Cell viability by Hoechst, mean ([1]; Glucose (Alone) 150 mM, 48 h): 103.3 | mortality in neurons [1, 5]: 54% | Extremity count/neuron (single replicates) ([2]; Glucose (Alone) 150 mM, 48 h): 0.82 and 0.9862 and 0.7818 | Extremity count/neuron, Mean % of control ([2]; Glucose (Alone) 150 mM, 48 h): 69.57 % of control | Extremity count/neuron, mean ([2]; Glucose (Alone) 150 mM, 48 h): 0.8627 | Total length per neuron (single replicates) ([2]; Glucose (Alone) 150 mM, 48 h): 42.95 and 52.97 and 37.56 | Total length per neuron, Mean % of control ([2]; Glucose (Alone) 150 mM, 48 h): 62.89 % of control | Total length per neuron, mean ([2]; Glucose (Alone) 150 mM, 48 h): 44.49 | decrease in neurite extremity count compared to untreated cells [2, 5]: 31% | decrease in neurite total length compared to untreated cells [2, 5]: 38% | viability reduction in DRGs measured by WST8 ([3]; glucose 150 mM, 48 h): 22%

CN(C)c1ccc2nc3ccc(N(C)C)cc3[s+]c2c1 [methylene blue, 3,7-bis(dimethylamino) phenothiazin-5-ium chloride]
Score of neuroprotection, HOECHST ([1]; 0.0005 μM): 3 (variation 60-100%) | Score of neuroprotection, HOECHST ([1]; 0.005 μM): 3 (variation 60-100%) | Score of neuroprotection, HOECHST ([1]; 0.05 μM): 3 (variation 60-100%) | Score of neuroprotection, HOECHST ([1]; 0.5 μM): 3 (variation 60-100%) | Score of neuroprotection, HOECHST ([1]; 5 μM): 1 (variation 20-40%) | Score of neuroprotection, HOECHST ([1]; 50 μM): −1 (variation 20-40%) | Cell viability by Hoechst, Mean % of control [1, 6]: 100.3 % of control | Cell viability by Hoechst, mean [1, 6]: 221.7 | Cell viability by Hoechst (single replicates) [1, 7]: 187 and 236 and 242 | Cell viability by Hoechst, Mean % of control [1, 8]: 115.1 % of control | Cell viability by Hoechst, mean [1, 8]: 254.3 | Cell viability by Hoechst (single replicates) [1, 9]: 255 and 290 and 218 | Cell viability by Hoechst, Mean % of control [1, 10]: 115.2 % of control | Cell viability by Hoechst, mean [1, 10]: 254.7 | Cell viability by Hoechst (single replicates) [1, 11]: 270 and 253 and 241 | Cell viability by Hoechst, Mean % of control [1, 12]: 109.2 % of control | Cell viability by Hoechst, mean [1, 12]: 241.3 | Cell viability by Hoechst (single replicates) [1, 13]: 234 and 217 and 273 | Cell viability by Hoechst, Mean % of control [1, 14]: 64.56 % of control | Cell viability by Hoechst, mean [1, 14]: 142.7 | Cell viability by Hoechst (single replicates) [1, 15]: 168 and 103 and 157 | Cell viability by Hoechst, Mean % of control [1, 16]: 30.92 % of control | Cell viability by Hoechst, mean [1, 16]: 68.33 | Cell viability by Hoechst (single replicates) [1, 17]: 74 and 69 and 62 | prevention of glucose-induced mortality ([1]; all concentrations (0.0005-5 μM), dose dependent, except 50 μM, co-incubation with 150 mM glucose): could prevent glucose-induced mortality | Score of neuroprotection, Extremity count ([2]; 0.0005 μM): 0 (no neuroprotection or variation lower than 20%) | Score of neuroprotection, Total length ([2]; 0.0005 μM): 0 (no neuroprotection or variation lower than 20%) | Score of neuroprotection, Extremity count ([2]; 0.005 μM): 0 (no neuroprotection or variation lower than 20%) | Score of neuroprotection, Total length ([2]; 0.005 μM): 0 (no neuroprotection or variation lower than 20%) | re-establishment of neurite outgrowth affected by glucose ([2]; 0.05 μM with 150 mM glucose): could re-establish the affected neurite outgrowth | Score of neuroprotection, Extremity count ([2]; 0.05 μM): 1 (variation 20-40%) | Score of neuroprotection, Total length ([2]; 0.05 μM): 1 (variation 20-40%) | Score of neuroprotection, Extremity count ([2]; 0.5 μM): 0 (no neuroprotection or variation lower than 20%) | Score of neuroprotection, Total length ([2]; 0.5 μM): 0 (no neuroprotection or variation lower than 20%) | Score of neuroprotection, Extremity count ([2]; 5 μM): −1 (variation 20-40%) | Score of neuroprotection, Total length ([2]; 5 μM): 0 (no neuroprotection or variation lower than 20%) | Score of neuroprotection, Extremity count ([2]; 50 μM): −3 (variation 40-60%) | Score of neuroprotection, Total length ([2]; 50 μM): −1 (variation 20-40%) | Extremity count/neuron, Mean % of control [2, 6]: 77.9 % of control | Extremity count/neuron, mean [2, 6]: 0.966 | Total length per neuron, Mean % of control [2, 6]: 70.88 % of control | Total length per neuron, mean [2, 6]: 50.15 | Extremity count/neuron (single replicates) [2, 7]: 1.058 and 0.8613 and 0.9784 | Total length per neuron (single replicates) [2, 7]: 50.96 and 40.13 and 59.36 | Extremity count/neuron, Mean % of control [2, 8]: 82.24 % of control | Extremity count/neuron, mean [2, 8]: 1.02 | Total length per neuron, Mean % of control [2, 8]: 74.22 % of control | Total length per neuron, mean [2, 8]: 52.51 | Extremity count/neuron (single replicates) [2, 9]: 0.8645 and 1.19 and 1.005 | Total length per neuron (single replicates) [2, 9]: 45.83 and 61.19 and 50.5 | Extremity count/neuron, Mean % of control [2, 10]: 95.29 % of control | Extremity count/neuron, mean [2, 10]: 1.182 | Total length per neuron, Mean % of control [2, 10]: 86.27 % of control | Total length per neuron, mean [2, 10]: 61.03 | Extremity count/neuron (single replicates) [2, 11]: 1.345 and 1.059 and 1.141 | Total length per neuron (single replicates) [2, 11]: 62.91 and 50.39 and 69.8 | Extremity count/neuron, Mean % of control [2, 12]: 61.57 % of control | Extremity count/neuron, mean [2, 12]: 0.7634 | Total length per neuron, Mean % of control [2, 12]: 56.15 % of control | Total length per neuron, mean [2, 12]: 39.72 | Extremity count/neuron (single replicates) [2, 13]: 0.6567 and 0.8552 and 0.7784 | Total length per neuron (single replicates) [2, 13]: 37.34 and 47.77 and 34.07 | Extremity count/neuron, Mean % of control [2, 14]: 52.97 % of control | Extremity count/neuron, mean [2, 14]: 0.6568 | Total length per neuron, Mean % of control [2, 14]: 60.36 % of control | Total length per neuron, mean [2, 14]: 42.7 | Extremity count/neuron (single replicates) [2, 15]: 0.8559 and 0.5369 and 0.5777 | Total length per neuron (single replicates) [2, 15]: 53.61 and 42.2 and 32.3 | Extremity count/neuron, Mean % of control [2, 16]: 20.98 % of control | Extremity count/neuron, mean [2, 16]: 0.2601 | Total length per neuron, Mean % of control [2, 16]: 22.74 % of control | Total length per neuron, mean [2, 16]: 16.09 | Extremity count/neuron (single replicates) [2, 17]: 0.2833 and 0.2345 and 0.2625 | Total length per neuron (single replicates) [2, 17]: 18.18 and 12.64 and 17.45 | compatibility with saline [4]: precipitation has been reported | nerve toxicity after injection into cerebral spinal fluid (peripheral nerves): massive peripheral nerves damage and resultant total paraplegia | ocular toxicity (eye): irreversible blindness, corneal edema | Score of neuroprotection, WST8 ([3]; 0.0005 μM): 0 (no neuroprotection or variation lower than 20%) | Score of neuroprotection, WST8 ([3]; 0.005 μM): 0 (no neuroprotection or variation lower than 20%) | Score of neuroprotection, WST8 ([3]; 0.05 μM): 0 (no neuroprotection or variation lower than 20%) | Score of neuroprotection, WST8 ([3]; 0.5 μM): 0 (no neuroprotection or variation lower than 20%) | Score of neuroprotection, WST8 ([3]; 5 μM): 0 (no neuroprotection or variation lower than 20%) | viability (WST8) in addition to glucose ([3]; 50 μM with 150 mM glucose): decrease in viability | Score of neuroprotection, WST8 ([3]; 50 μM): −1 (variation 20-40%) | prevention of glucose induced viability decrease (WST8) ([3]; 0.0005-50 μM with 150 mM glucose): could not prevent glucose induced viability decrease | Total score of neuroprotection (sum of individual scores) (glucose-treated DRGs; 0.0005 μM): 3 | Neuroprotection degree (glucose-treated DRGs; 0.0005 μM): low (low (1-3)) | Total score of neuroprotection (sum of individual scores) (glucose-treated DRGs; 0.005 μM): 3 | Neuroprotection degree (glucose-treated DRGs; 0.005 μM): low (low (1-3)) | Total score of neuroprotection (sum of individual scores) (glucose-treated DRGs; 0.05 μM): 5 | Neuroprotection degree (glucose-treated DRGs; 0.05 μM): moderate (moderate (4-5)) | Total score of neuroprotection (sum of individual scores) (glucose-treated DRGs; 0.5 μM): 3 | Neuroprotection degree (glucose-treated DRGs; 0.5 μM): low (low (1-3)) | Total score of neuroprotection (sum of individual scores) (glucose-treated DRGs; 5 μM): 0 | Neuroprotection degree (glucose-treated DRGs; 5 μM): no (no neuroprotection (0)) | Total score of neuroprotection (sum of individual scores) (glucose-treated DRGs; 50 μM): −6 | neuroprotection against glucose-induced DRGs toxicity, all parameters (glucose-treated DRGs; concentrations from 0.0005 μM to 0.5 μM): some neuroprotection
